Assay results published in PubChem BioAssay (NCI).
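Cells were grown in 96-well plates and exposed to each compound for 48 hours at five concentrations; endpoints were interpolated linearly between bracketing concentrations, or set to the highest concentration if not reached. TGI: concentration producing complete growth inhibition.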

Key:
Assay in all cases: inhibition of tumour cell growth, NCI panel, 48 h
[1] = system: HOP-92 NSCLC
[2] = system: COLO 205 colon
[3] = system: SNB-75 CNS
[4] = system: NCI-H522 lung
[5] = system: T-47D breast
[6] = system: CCRF-CEM leukemia
[7] = system: DU-145 prostate
[8] = system: 786-0 renal
[9] = system: SNB-19 CNS
[10] = system: NCI-H23 lung

COc1cc2c(cc1OCc1ccccc1)NC(=O)[C@@H]1C[C@@H](O)CN1C2=O
TGI [1]: > 100 µM
TGI [2]: > 100 µM
TGI [3]: > 100 µM
TGI [4]: > 100 µM
TGI [5]: > 100 µM
TGI [6]: > 100 µM
TGI [7]: > 100 µM
TGI [8]: > 100 µM
TGI [9]: > 100 µM
TGI [10]: > 100 µM

COc1cc(/C=C/C=C2\CC(C)C/C(=C\C=C\c3ccc(O)c(OC)c3)C2=O)ccc1O (stereo not drawn)
TGI [1]: 23.4 µM
TGI [2]: > 100 µM
TGI [3]: 32.3 µM
TGI [4]: 2.5 µM
TGI [5]: > 100 µM
TGI [6]: 15.6 µM
TGI [7]: > 100 µM
TGI [8]: 47.9 µM
TGI [9]: 96.2 µM
TGI [10]: 40.2 µM

CCCCCCCCCCCOCCC1C(C(C)OCCN2CCCC2)OC2OC(C)(C)OC21 (stereo not drawn)
TGI [1]: 4.75 µM
TGI [2]: 3.88 µM
TGI [3]: 7.07 µM
TGI [4]: 1.05 µM
TGI [5]: 4.8 µM
TGI [6]: > 23.9 µM
TGI [7]: 11.3 µM
TGI [8]: 5.88 µM
TGI [9]: 13.7 µM
TGI [10]: 11 µM

Cc1nc(-c2ccc(Cl)cc2)cn2c1nc1ccccc12
TGI [1]: > 100 µM
TGI [2]: > 100 µM
TGI [3]: > 100 µM
TGI [4]: > 100 µM
TGI [5]: > 21.4 µM
TGI [6]: > 31.6 µM
TGI [7]: > 100 µM
TGI [8]: > 100 µM
TGI [9]: > 100 µM
TGI [10]: > 100 µM

O=C(O)c1cc2c(cc1CC(Cc1ccccc1)C(=O)O)CCC2 (stereo not drawn)
TGI [2]: > 100 µM
TGI [3]: > 100 µM
TGI [4]: > 100 µM
TGI [5]: > 100 µM
TGI [6]: > 100 µM
TGI [7]: > 100 µM
TGI [8]: > 100 µM
TGI [9]: > 100 µM
TGI [10]: > 100 µM

c1csc(-c2csc(-c3cccs3)c2)c1
TGI [1]: 69.8 µM
TGI [2]: 32.8 µM
TGI [3]: > 100 µM
TGI [4]: > 100 µM
TGI [5]: > 100 µM
TGI [6]: > 100 µM
TGI [7]: > 100 µM
TGI [8]: > 100 µM
TGI [9]: > 100 µM
TGI [10]: 63.1 µM

CCSc1nn(-c2c3ccccc3nc3ccccc23)c(=S)s1
TGI [1]: > 100 µM
TGI [2]: > 100 µM
TGI [3]: > 100 µM
TGI [4]: > 100 µM
TGI [5]: > 100 µM
TGI [6]: > 100 µM
TGI [7]: > 100 µM
TGI [8]: > 100 µM
TGI [9]: > 100 µM
TGI [10]: > 100 µM

COC(=O)C[C@H]1[C@]2(C)C3=C(C)[C@H](c4ccoc4)CC3O[C@@H]2[C@@H]2OC(=O)[C@]3(C)CCC(=O)[C@@]1(C)[C@@H]23 (stereo partly drawn)
TGI [1]: > 100 µM
TGI [2]: > 100 µM
TGI [3]: > 100 µM
TGI [4]: 91.1 µM
TGI [5]: > 100 µM
TGI [6]: 45.1 µM
TGI [7]: > 100 µM
TGI [8]: > 100 µM
TGI [10]: > 100 µM

C=CC(=O)N1C/C(=C\c2ccc(F)cc2)C(=O)/C(=C/c2ccc(F)cc2)C1
TGI [1]: 8.62 µM
TGI [2]: 1.81 µM
TGI [3]: 1.94 µM
TGI [4]: 1.94 µM
TGI [5]: 39.7 µM
TGI [6]: > 100 µM
TGI [7]: 13.5 µM
TGI [8]: 0.346 µM
TGI [9]: 3.72 µM
TGI [10]: 3.32 µM

Oc1cc(Br)cc2cc(Br)cnc12
TGI [1]: 83.8 µM
TGI [2]: > 100 µM
TGI [3]: > 100 µM
TGI [4]: 8.2 µM
TGI [5]: 8.41 µM
TGI [6]: 6.27 µM
TGI [7]: 60.8 µM
TGI [8]: 71.1 µM
TGI [9]: > 100 µM
TGI [10]: 46.1 µM
